In patent US5194611A, “Separation technique for a mixture of (6RS)-diastereoisomers of an ammonium salt of N^5 -methyl-5,6,7,8-tetrahydrofolic acid into single (6R) and (6S)-diastereoisomers” (Sapec S.A. fine chemicals, priority 1990, dated 1993):
Where a name gives a salt, the structure may show the parent alone.

System: human CCRF-CEM cells
Assay: cells
Settings: 72 h, read-out: % growth (72 hrs exp.)
Procedure: Inhibition of the growth of human CCRF-CEM cells
Human leukemia cells (CCRF-CEM) were grown during 72 hours in the presence of increasing concentration of (6R)-N^5 -methyl-THF.[…].

For `CN1c2c(nc(N)[nH]c2=O)NC[C@H]1CNc1ccc(C(=O)N[C@@H](CCC(=O)O)C(=O)O)cc1` [(6R)-N^5 -Methyl-THF.Ca^2+, (6R)-N^5 -methyl-THF-calcium salt], the activity at 1 µM was 95%, the activity at 10 µM was 99% and the activity at 30 µM was 10%. The activity at 100 µM was 9.3% and the activity at 250 µM was 8.2%.
